SMILES strings stand for the structures. Structures can show the parent of a compound that is named as a salt.

Molecule `Cl.Cl.N=C(N)c1ccc(OCCCOc2ccc(-c3cc4ccc(C(=N)N)cc4o3)cc2)cc1` showed a melting point of 294 to 295 °C. Under `N=C(NO)c1cccc(-c2cc3ccc(C(=N)NO)cc3o2)c1` (as salt: HCl) [Compound 180, 2-(3-(N-Hydroxycarbamimidoyl)phenyl)-N-hydroxybenzofuran-6-carboxamidine] stands 210 °C (dec.); under `N=C(NO)c1ccc(-c2cc3ccc(C(=N)NO)cc3o2)cc1` (as salt: HCl) [Compound 181, 2-(4-(N-Hydroxycarbamimidoyl)phenyl)-N-hydroxybenzofuran-6-carboxamidine], 210 °C (dec.); under `N=C(NO)c1ccc(OCCCOc2ccc(-c3cc4cc(C(=N)NO)ccc4o3)cc2)cc1` (as salt: HCl) [Compound 182, 2-(4-(3-(4-(N-Hydroxycarbamimidoyl)phenoxy)propoxy)phenyl)-N-hydroxybenzofuran-5-carboxamidine], 204 °C (dec.). `N=C(NO)c1ccc(OCCCCCOc2ccc(-c3cc4cc(C(=N)NO)ccc4o3)cc2)cc1` (as salt: HCl) [Compound 183, 2-(4-(5-(4-(N-Hydroxycarbamimidoyl)phenoxy)pentyloxy)phenyl)-N-hydroxybenzofuran-5-carboxamidine]: the melting point was 202 °C (dec.). Then `N=C(NO)c1ccc2cc(CCCCCc3cc4ccc(C(=N)NO)cc4o3)oc2c1` (as salt: HCl) [Compound 184, 2-(5-(6-(N-Hydroxycarbamimidoyl)benzofuran-2-yl)pentyl)-N-hydroxybenzofuran-6-carboxamidine], with 220 °C (dec.); and `N=C(NO)c1ccc2oc(CCCc3cc4cc(C(=N)NO)ccc4o3)cc2c1` (as salt: HCl) [Compound 185, 2-(3-(5-(N-Hydroxycarbamimidoyl)benzofuran-2-yl)propyl)-N-hydroxybenzofuran-5-carboxamidine], with 145 to 147 °C (dec.); and `N=C(NO)c1ccc2oc(CCCCc3cc4cc(C(=N)NO)ccc4o3)cc2c1` (as salt: HCl) [Compound 186, 2-(4-(5-(N-Hydroxycarbamimidoyl)benzofuran-2-yl)butyl)-N-hydroxybenzofuran-5-carboxamidine], with 231 °C (dec.). As to `CONC(=N)c1ccc2cc(CCCCCc3cc4ccc(C(=N)NOC)cc4o3)oc2c1` (as salt: HCl) [Compound 187, 2-(5-(6-(N-Methoxycarbamimidoyl)benzofuran-2-yl)pentyl)-N-methoxybenzofuran-6-carboxamidine], the melting point is 230 to 231 °C (dec.). On to `CONC(=N)c1ccc2oc(CCCc3cc4cc(C(=N)NOC)ccc4o3)cc2c1` (as salt: HCl) [Compound 188, 2-(3-(5-(N-Methoxycarbamimidoyl)benzofuran-2-yl)propyl)-N-methoxybenzofuran-5-carboxamidine], for which the melting point is 89 to 90 °C (dec.). Consider `CONC(=N)c1ccc2oc(CCCCc3cc4cc(C(=N)NOC)ccc4o3)cc2c1` (as salt: HCl) [Compound 189, 2-(4-(5-(N-Methoxycarbamimidoyl)benzofuran-2-yl)butyl)-N-methoxybenzofuran-5-carboxamidine], for which the melting point was 248 to 250 °C (dec.).

As to `CONC(=N)c1ccc2oc(CCc3cc4cc(C(=N)NOC)ccc4o3)cc2c1` (as salt: HCl) [Compound 191, 2-(2-(5-(N-Methoxycarbamimidoyl)benzofuran-2-yl)ethyl)-N-methoxybenzofuran-5-carboxamidine], the melting point was 245 to 246 °C (dec.). With `N=C(NO)c1ccc2oc(CCCCCc3cc4cc(C(=N)NO)ccc4o3)cc2c1` (as salt: HCl) [Compound 192, 2-(5-(5-(N-Hydroxycarbamimidoyl)benzofuran-2-yl)pentyl)-N-hydroxybenzofuran-5-carboxamidine], the melting point was 120 °C (dec.). With `CONC(=N)c1ccc2oc(CCCCCc3cc4cc(C(=N)NOC)ccc4o3)cc2c1` (as salt: HCl) [Compound 193, 2-(5-(5-(N-Methoxycarbamimidoyl)benzofuran-2-yl)pentyl)-N-methoxybenzofuran-5-carboxamidine], the melting point was 118 °C (dec.). With `c1cc(OCCCCCCOc2ccc(C3=NCCN3)cc2)cc(-c2cc3cc(C4=NCCN4)ccc3o2)c1` (as salt: salt) [Compound 43, 2-(2-(3-(6-(4-(4,5-Dihydro-1H-imidazol-2-yl)phenoxy)hexyloxy)phenyl)benzofuran-5-yl)-4,5-dihydro-1H-imidazole], the melting point fell in the range of 178 to 182 °C.

Molecule `Cl.Cl.c1cc(C2=NCCN2)c2cc(Cc3cc4c(C5=NCCN5)cccc4o3)oc2c1` [Compound 3, Bis(4-(4,5-dihydro-1H-imidazol-2-yl)benzofuran-2-yl)methane dihydrochloride] came in with a melting point of 333 to 335 °C.

In the case of `Cl.Cl.N=C(N)c1ccc2oc(Cc3cc4cc(C(=N)N)ccc4o3)cc2c1` [Compound 4, 2-((5-Amidinobenzofuran-2-yl)methyl)benzofuran-5-carboxamidine dihydrochloride], the melting point lay within 212 to 214 °C. In turn, `Cl.Cl.c1cc2oc(Cc3cc4cc(C5=NCCN5)ccc4o3)cc2cc1C1=NCCN1` [Compound 6, Bis(5-(4,5-dihydro-1H-imidazol-2-yl)benzofuran-2-yl)methane dihydrochloride] showed a melting point of 233 to 235 °C.

`Cl.Cl.c1cc2cc(Cc3cc4ccc(C5=NCCN5)cc4o3)oc2cc1C1=NCCN1` [Compound 7, Bis(6-(4,5-dihydro-1H-imidazol-2-yl)benzofuran-2-yl)methane dihydrochloride] returned a melting point of 341 to 343 °C.

For `Cl.Cl.c1cc2oc(CCc3cc4cc(C5=NCCN5)ccc4o3)cc2cc1C1=NCCN1` [Compound 10, 4,5-Dihydro-2-(2-(2-(5-(4,5-dihydro-1H-imidazol-2-yl)benzofuran-2-yl)ethyl)benzofuran-5-yl)-1H-imidazole dihydrochloride], the melting point is 366 °C (dec.). Regarding `Cl.Cl.N=C(N)c1ccc2cc(CCc3cc4ccc(C(=N)N)cc4o3)oc2c1` [Compound 11, 2-(2-(6-Amidinobenzofuran-2-yl)ethyl)benzofuran-6-carboxamidine dihydrochloride], the melting point is 362 °C (dec.). As to `Cl.Cl.c1cc2cc(CCc3cc4ccc(C5=NCCN5)cc4o3)oc2cc1C1=NCCN1` [Compound 13, 4,5-dihydro-2-(2-(2-(6-(4,5-dihydro-1H-imidazol-2-yl)benzofuran-2-yl)ethyl)benzofuran-6-yl)-1H-imidazole dihydrochloride], the melting point was greater than 360 °C. On to `Cl.Cl.N=C(N)c1ccc2oc(CCCc3cc4cc(C(=N)N)ccc4o3)cc2c1` [Compound 14, 2-(3-(5-Amidinobenzofuran-2-yl)propyl)benzofuran-5-carboxamidine dihydrochloride], for which the melting point fell in the range of 168 to 170 °C.

`Cl.Cl.c1cc2oc(CCCc3cc4cc(C5=NCCN5)ccc4o3)cc2cc1C1=NCCN1` [Compound 16, 4,5-Dihydro-2-(2-(3-(5-(4,5-dihydro-1H-imidazol-2-yl)benzofuran-2-yl)propyl)benzofuran-5-yl)-1H-imidazole dihydrochloride]: the melting point lay in the range of 203 to 205 °C. Take `Cl.Cl.N=C(N)c1ccc2cc(CCCc3cc4ccc(C(=N)N)cc4o3)oc2c1` [Compound 17, 2-(3-(6-Amidinobenzofuran-2-yl)propyl)benzofuran-6-carboxamidine dihydrochloride]: the melting point is > 300 °C (dec.).

As usually defined, the melting point is the temperature of the solid-liquid transition.

The values are drawn from US20080114047A1 (priority 2003, published 2008).
